From US6964763B1, “Methods and compositions for inhibiting HIV infectivity and blocking chemokine activity” (priority 1997, dated 2005)
Where a SMILES comes first, the peptide text is derived from it.

Assays:
[1] = tested on: CD4-gp120 complex formation; assay: Competitive inhibition of 125I-CD4 binding to immobilized gp120; parameters: species or system HIV-1 (MN and LAI isolates); conditions: 10-fold molar excess (0.5 μM) competitor, 50 nM 125I-CD4, MN and LAI gp120
Method: FIG. 5 is a graph showing competitive inhibition of ^125I-CD4 binding to gp120. […] Samples were incubated, and bound TSP1 was measured as in FIG. 2. A single data set of triplicate samples (η=3, error as SD) is shown.
(§1) Radiolabeling was performed with Na[^125I]
These observations support a role for salivary TSP1 as a direct inhibitor of HIV infectivity.

CD4 = molecular target: T1, CD4 (Homo sapiens, UniProt P01730); assay: Solid phase binding of 125I-CD4 to immobilized TSP1 and TSP analog
T1 construct: CHO cell-expressed soluble CD4; host or cells: CHO cells
Method: FIG. 12 is a graph showing the binding of ^125I-CD4 to TSP1 and a TSP analog. Increasing concentrations of soluble ^125I-labeled CD4 (0.1μM -1.0 μM) were added to immobilized TSP1, CVSTCG polypeptide (SEQ. ID. No. 1). Samples were incubated and bound ^125I-labeled CD4 measured by solid-binding radio-amino assay, […].
as §1

gp120 (LAI isolate) = molecular target: T2, gp120 (LAI isolate) (Human immunodeficiency virus type 1 group M subtype B, UniProt P03377); assay type: binding, HIV-1
T2 construct: baculovirus-expressed HIV-1 gp120 derived from LAV and MN isolates; host or cells: baculovirus expression system
Method: Increasing concentrations of soluble ^125I-labeled recombinant gp120LAV (nM -1μM) were incubated with immobilized ligand for 2 hours at 37° C., and bound radioactivity measured as in FIGS. 2A and 2B. […] This plot represents a single data set of triplicate samples (72=2, errors as SD).
Briefly, TSP1 (5-10 μg/ml) or fusion proteins and peptides (10-20 μg/ml) were immobilized on detachable 96-well microtiter plate strips (Immulon-4 Remov-a-well, Dynatech Laboratories, Inc.), by overnight incubation at 4° C. in carbonate buffer (100 mM Na2CO3/1 mM MgCl2/0.02% NaN3, pH 9.8). Washed wells were blocked with 0.5% bovine serum albumin (“BSA”), then incubated in triplicate with soluble radiolabeled ligand for 2.5 hours at 37° C. After extensive washing in 50 mM Tris pH 7.5, 150 mM NaCl, 0.5% Tween-20 (TBS-Tween), bound radioactivity was quantified by gamma counter. […] Specific activity of Na[^125I] was determined for each experiment, ranging from 0.06-1.0 μCi/μg. Specific binding was determined as quenchable in the presence of excess unlabeled ligand, above background binding to BSA-coated wells.
The gp120 envelope protein was tested to determine whether it shared this same specificity.

HIV-1 isolate IIIB = assay: HIV-1 infectivity assay, virus pre-incubated with TSP1 or saliva, p24 ELISA day 7; assay type: cell-based
Method: HIV-1 isolate IIIB was pre-incubated in the absence of TSP1, or with various concentrations of purified TSP1 for 1 hour at 37° C. Pre-incubated virus-TSP1 mixtures were added to target cells either directly (−), or first passed through 0.2 μm filters (+). Phorbol myrisate acetate (“PMA”) activated primary peripheral blood mononuclear cells (“PBMC”), SK23 (T-cell line) or U937 (promonocytic line) were inoculated with the multiplicities of infection (“moi”) indicated. After an additional 1 hour at 37° C., infected cells were washed, cultured for 7 days, and HIV-1 p24 antigen measured by ELISA. Inhibition is expressed for a single data set as percent of maximum p24 detected in the absence of TSP1.
PMA-stimulated primary PBMC were infected with 0.02 moi HIV/IIIB that had been pre-incubated with TSP1 alone, or with LIMPII fusion protein LFP75-155 alone or in the presence of TSP1, and filtered prior to incubation as in FIG. 7. TSP-mediated inhibition is expressed as percent decrease in p24 relative to maximum p24 detected in the absence of TSP 1. Data shown represent the average of two independent experiments (error as SD).
CD4+T lymphoblastoid (SK23, Jurkat) and promonocytic (U937) cell lines, or peripheral blood mononuclear cells (“PBMC”) obtained from HIV seronegative donors and activated with phytohemagglutinin (“PHA”, 2 μg/ml for 72 hours), were cultured in RPMI 1640, 5% fetal bovine serum (“FBS”, frozen/thawed and complement-inactivated 30 minutes at 56° C.), 100 U/ml penicillin and 100 μg/ml streptomycin (GIBCO/BRL, Grand Island, N.Y.). PBMC medium also contained 32 U/ml interleukin-2 (Sigma Chemical Co., St. Louis, Mo.). FBS samples were pre-screened to assure that levels of TSP were<10 μg/ml. Acute HIV infection was performed using HIV-1 isolate IIIB stock virus as previously described (Laurence et al., “Human Immunodeficiency Virus Infection of Helper T-Cell Clones: Early Proliferative Defects Despite Intact Antigen-Specific Recognition and Interleukin 4 Secretion,” J. Clin. Invest., 83:1843-1848 (1989); Laurence et al., “Human Immunodeficiency Virus Infection of Monocytes: Relationship to Fc-Gamma Receptors and Antibody-Dependent Viral Enhancement,” Immunology, 70:338-343 (I 990), which are hereby incorporated by reference). Briefly, 2.5×10^5 target cells were exposed to stock virus at a moi of either 0.02 or 0.15 for 2 hours at 37° C., washed once with PBS, and re-plated in tissue culture-treated microwells with 0.3 ml fresh culture medium. At 3-4 days post-inoculation, one half of culture supernatant from each well was replaced with fresh medium. HIV activity was determined after 7 days using an ELISA antigen capture assay for HIV-1 p24 (gag) core protein (Dupont Medical Products, Boston, Mass.) of Triton X-100 solubilized culture supernatants.
• 100 μl of HIV-1/IIIB inocula were mixed with 100 μl of various concentrations of whole saliva, salivary fluid fractions, or purified platelet TSP1 diluted in serum-free cell culture medium, and pre-incubated for 2 hours at 37° C. Then, 10-fold serial dilutions were added directly to target cell cultures for assay of infectivity. In some experiments, pre-incubated virus-saliva/TSP mixtures were filtered through 0.2 μm nitrocellulose syringe filters (Gelman Sciences, Ann Arbor, Mich.) prior to inoculation of target cells. Salivary TSP1 Depletion Experiments

RANTES = molecular target: T3, RANTES (Homo sapiens, UniProt P13501); assay: Solid phase binding of 125I-RANTES to immobilized TSP
T3 sequence (P13501 24-91): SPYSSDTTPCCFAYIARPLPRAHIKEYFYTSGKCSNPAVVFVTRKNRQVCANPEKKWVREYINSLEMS
Method: FIG. 9 is a graph showing the binding of ^125I-RANTES to TSP1. Increasing concentrations of soluble ^125I-labeled RANTES (0.01 μM -10.0 μM) were added to immobilized TSP1. Samples were incubated and bound ^125I-labeled RANTES measured by solid-binding radio-amino assay.
FIG. 10 is a graph showing the Hanes analysis of “^125-RANTES binding to immobilized TSP1. The Hanes analysis provides a measure of assessing the possibility of binding one or more factors to a given molecule.
as §1
In solid phase assays, ^125I-RANTES binded to immobilized TSP. […] Estimated stoichiometry at equilibrium was low (˜0.5 RANTES molecule for every 10 TSP monomer), although the steep slope of the second phase indicated a cooperative interaction (Hanes plot, FIG. 10). One interpretation of the data is that RANTES homodimerization is favored over binding to TSP. At a concentration that shifts equilibrium toward formation of the heterologous complex, positive cooperativity likely reflects a higher apparent affinity of RANTES monomers for binding to TSP, with an increase in monomers being a function of the odd number of sites presented by TSP homotrimers.

[2] = molecular target: recombinant HIV-1 gp160 (gp120 non-covalently linked to gp41) (Human immunodeficiency virus type 1 group M subtype B, UniProt P03375)
Method: Increasing concentrations of soluble ^125I-labeled TSP1 (1 nM-μM) were added to immobilized recombinant HIV-1 gp160 for 3 hours at 22° C., and bound TSP1 measured after extensive washing. Non-linear curve fit was generated with Excell™ version 5.0. Apparent affinity was estimated from Scatchard analysis. (n=2; error calculated as standard deviation, SD).
A fixed concentration of ^125I-labeled TSP 1(50 nM) was added to immobilized rgp 160 in the absence or presence of 10-fold molar excess (0.5 μM) unlabeled TSP1, fusion protein LFP75-155 containing the LIMPII TSP binding domain (aa 75-155), or downstream fusion protein LFP 156-243. Samples were incubated, and bound TSP 1 was measured as in FIG. 2A. Plots represent single data sets of triplicate samples. (n=3, error as SD).
Briefly, TSP1 (5-10 μg/ml) or fusion proteins and peptides (10-20 μg/ml) were immobilized on detachable 96-well microtiter plate strips (Immulon-4 Remov-a-well, Dynatech Laboratories, Inc.), by overnight incubation at 4° C. in carbonate buffer (100 mM Na2CO3/1 mM MgCl2/0.02% NaN3, pH 9.8). Washed wells were blocked with 0.5% bovine serum albumin (“BSA”), then incubated in triplicate with soluble radiolabeled ligand for 2.5 hours at 37° C. After extensive washing in 50 mM Tris pH 7.5, 150 mM NaCl, 0.5% Tween-20 (TBS-Tween), bound radioactivity was quantified by gamma counter. Radiolabeling was performed with Na[^125I] […] Specific activity of Na[^125I] was determined for each experiment, ranging from 0.06-1.0 μCi/μg. Specific binding was determined as quenchable in the presence of excess unlabeled ligand, above background binding to BSA-coated wells.

[3] = tested on: monocytotropic strains of HIV-1, p13 and HA593; assay: HIV-1 infectivity assay with monocytotropic patient isolates; assay type: cell-based; conditions: 100 μg/ml TSP1, viral moi 0.8
CD4 surface expression = assay: Cell surface expression of CD4 by flow cytometry; assay type: cell-based, human; conditions: 100 μg/ml TSP1, 3 days; Jurkat, SK23, PHA-activated PBMC
Method: CD4 surface expression on HIV-1 infected or uninfected U937 cells was evaluated by indirect immunofluorescence flow cytometry using anti-CD4 mAb Leu3, as detailed elsewhere (Laurence et al., “Human Immunodeficiency Virus Infection of Helper T-Cell Clones: Early Proliferative Defects Despite Intact Antigen-Specific Recognition and Interleukin 4 Secretion,” J. Clin. Invest., 83:1843-1848 (1989), which is hereby incorporated by reference).
Another mechanism to explain TSP-mediated blockade to HIV infection would be a direct effect on target cells, whereby alterations in cell function would decreased the capacity to support productive infection. To address whether exogenous purified TSP1 induced down-modulation of the high affinity HIV receptor, CD4+ Jurkat and SK23 T-cell lines, as well as PHA-activated PBMC, were monitored for differences in CD4 surface expression after culture for 3 days in the absence or presence of 100 μg/ml TSP1. By flow cytometric analysis of cells stained with fluorescein-conjugated anti-CD4 IgG, no change in relative fluorescence intensity or percent CD4+cell was detected.

Compound: CC(C)[C@H](NC(=O)[C@H](CO)NC(=O)[C@@H](N)CS)C(=O)N[C@H](C(=O)N[C@@H](CS)C(=O)NCC(=O)O)[C@@H](C)O [CSVTCG, cys-ser-val-thr-cys-gly] (H-CSVTCG-OH; N-terminus and C-terminus assumed)
- inhibition of 125I-CD4 binding to immobilized gp120 [1]: 53±9%
- binding of 125I-CD4 to immobilized ligand (in words) (CD4): binded directly

Compound: GRGDS (GRGDA) [reference compound]
- binding of 125I-gp120 to immobilized peptide (in words) (gp120 (LAI isolate)): inefficient binding
- inhibition of 125I-CD4 binding to immobilized gp120 [1]: 4±4%

Compound: VGSCCT [scrambled control peptide, reference compound]
- binding of 125I-gp120 to immobilized peptide (in words) (gp120 (LAI isolate)): inefficient binding
- inhibition of 125I-CD4 binding to immobilized gp120 [1]: enhanced binding

Compound: fibrinogen [reference compound]
- effect on HIV-1 infection of PBMC (in words) (HIV-1 isolate IIIB; same system as TSP1, pre-filtered): no effect

Compound: thrombospondin-1 [TSP1]
- inhibition of 125I-CD4 binding to immobilized gp120 [1]: complete inhibition
- reduction of HIV-1 infection of PHA-activated donor PBMC (p24) (HIV-1 isolate IIIB; 2-10 μg/ml TSP1, pre-filtered): > 83%
- reduction of HIV-1 infectivity after brief exposure (HIV-1 isolate IIIB; 5 minutes exposure of TSP-virion mixture, 1 μg/ml TSP1): > 50%
- inhibition of HIV-1 IIIB infection, SK23 (HIV-1 isolate IIIB; SK23 CD4+ T-lymphoblastoid cell line): ≥ 90.7%
- inhibition of HIV-1 IIIB infection, U937 (HIV-1 isolate IIIB; U937 monocytoid cell line): ≥ 83.0%
- inhibition of HIV-1 on direct addition of TSP1 (HIV-1 isolate IIIB; no filtration, only with high concentration of TSP1 and low moi inoculum): 50-75%
- estimated stoichiometry at equilibrium (RANTES): ~0.5 RANTES molecule for every 10 TSP monomer
- Kd (RANTES; saturatable, biphasic higher order kinetics, read-out: half maximal binding of 125I-RANTES to immobilized TSP): ~330 nM
- inhibition of 125I-TSP1 binding to gp160 ([2]; 10-fold molar excess (0.5 μM) unlabeled competitor, 50 nM 125I-TSP1): 94±6%
- Kd ([2]; read-out: apparent affinity of TSP1 binding to immobilized recombinant gp160, soluble 125I-TSP1, Scatchard analysis): ~250 nM
- binding of 125I-CD4 to immobilized ligand (in words) (CD4): concentration dependent saturatable manner
- inhibition of HIV infectivity, strains p13 and HA593 [3]: ≥ 98±1%
- change in relative fluorescence intensity or percent CD4+ cells (CD4 surface expression): no change
